Values quoted from earlier work, collected in patent US20190320628A1, “A NON-HUMAN ANIMAL MODEL OF NEURODEGENERATIVE DISORDERS” (priority 2016, published 2019).

Legend:
Wistar rats = conditions: KA alone
rats = conditions: initial KA dose 5 mg/kg i.p., subsequent doses tailored
animals = conditions: KA used to model human epilepsy, SE/cSE-based models

C=C(C)[C@H]1CN[C@H](C(=O)O)[C@H]1CC(=O)O [KA, kainic acid]
Non-responders among the surviving animals (Wistar rats): 20-40%
Mortality (Wistar rats; SE terminated by diazepam): up to 30%
Mortality rate (rats): around 15%
Mortality (animals): up to 50%
Non-responders (surviving animals that never exhibit spontaneous seizures) (animals): up to 50%
